These results are taken from patent US20240148821A1, “PHARMACEUTICAL USE OF CYCLIC PEPTIDE COMPOUND” (CHUGAI SEIYAKU KABUSHIKI KAISHA, priority 2021, published 2024).

Structures are written as SMILES. pIC50: −log10 of the molar value. Numbered stars: 1 amine (or outer) side, 2 acyl side, 3 side chain; on linkers, the order of the positions; unused ones are H or OH. Bridge positions count the residues as written; N and C are the ends. Square brackets hold non-standard residues; d marks the D form. Peptide text beside a SMILES is read from it. * marks the point of attachment. hPhe(3-Cl-4-CF3) = N[C@@H](CCc1ccc(C(F)(F)F)c(Cl)c1)C(=O)O; hPhe(3-F,4-CF3) = N[C@@H](CCc1ccc(C(F)(F)F)c(F)c1)C(=O)O; NMeAla(4-thiazolyl) = CN[C@@H](Cc1cscn1)C(=O)O; NMePhe(4-CN) = CN[C@@H](Cc1ccc(C#N)cc1)C(=O)O; NMePhe(4-Cl) = CN[C@@H](Cc1ccc(Cl)cc1)C(=O)O; NMePhe(4-Me) = CN[C@@H](Cc1ccc(C)cc1)C(=O)O; X48 = CN([C@@H](CCc1cccnc1)C(=O)[*:2])[*:1]; Leu(4,5-dehydro) = C=C(C)C[C@H](N)C(=O)O; NMePhe(2-F) = CN[C@@H](Cc1ccccc1F)C(=O)O; NMeGly(cPent) = CN[C@H](C(=O)O)C1CCCC1; Phe(2-Cl) = N[C@@H](Cc1ccccc1Cl)C(=O)O; Phe(2-OMe) = COc1ccccc1C[C@H](N)C(=O)O; Phe(3-I) = N[C@@H](Cc1cccc(I)c1)C(=O)O; NMe3Pal = CN[C@@H](Cc1cccnc1)C(=O)O; NMeCha = CN[C@@H](CC1CCCCC1)C(=O)O; NMeChg = CN[C@H](C(=O)O)C1CCCCC1; NMeI = CC[C@H](C)[C@H](NC)C(=O)O; NMeD = CN[C@@H](CC(=O)O)C(=O)O; NMeL = CN[C@@H](CC(C)C)C(=O)O; hLeu = CC(C)CC[C@H](N)C(=O)O; NMeV = CN[C@H](C(=O)O)C(C)C; d(β3hA) = C[C@@H](N)CC(=O)O; Ac6c = NC1(C(=O)O)CCCCC1; Morpholide = C1CN(*)CCO1; NMeA = CN[C@@H](C)C(=O)O; NMeAib = CNC(C)(C)C(=O)O; Piperidide = C1CCN(*)CC1; Pra = C#CC[C@H](N)C(=O)O; Ac5c = NC1(C(=O)O)CCCC1; Aze = O=C(O)[C@@H]1CCN1; Cyclobutyl = C1CC(*)C1; Aib = CC(C)(N)C(=O)O; Sar = CNCC(=O)O

The subject of the experiment is Human pancreatic cancer cell line AsPC-1 (G12D mutation Kras). As to the kind of experiment: AsPC-1 cell growth inhibition (AsPC-1 CGI). It counts as cell-based. The following applies: read-out: AsPC-1 cell growth inhibition, 50% growth inhibitory concentration (IC50 value); 96 hours, CellTiter-Glo, values classified in ranges. On the technique in general: In ATP-based viability assays light output follows the ATP content of the culture.
Experimental: Test compounds were serially dilated with dimethyl sulfoxide, and 200 nL was then dispensed to a U-bottom 96-well plate using Labcyte Echo. […] The cell suspension was dispensed to a. plate containing a test compound at 100 μL per well and incubated at 37° C. in a 5% carbon dioxide gas incubator. 96 hours later, 80 μL of CellTiter-Glo (Promega) was added to each well and fluorescence was measured.
With `CC(C)C[C@H]1C(=O)N[C@@H](COC2CCC2)C(=O)N(C)CC(=O)N(C)CC(=O)N(C)[C@@H](CC2CCCCC2)C(=O)N(C)CC(=O)N[C@@H](CCc2ccc(C(F)(F)F)c(Cl)c2)C(=O)N2CCC[C@H]2C(=O)NC2(CCCC2)C(=O)N(C)[C@@H](C2CCCCC2)C(=O)N(C)[C@H](C(=O)N2CCCCC2)CC(=O)N1C` [Compound 226] ([NMeL]S(Cyclobutyl)[Sar][Sar][NMeCha][Sar][hPhe(3-Cl-4-CF3)]P[Ac5c][NMeChg][NMeD]-Piperidide; lactam N-11), the pIC50 is less than 6.30.
Under `CC(C)CC[C@@H]1NC(=O)[C@H](CC(C)C)N(C)C(=O)C[C@@H](C(=O)N2CCCCC2)N(C)C(=O)[C@H](C2CCCCC2)N(C)C(=O)C2(CCCC2)NC(=O)[C@@H]2CCCN2C(=O)[C@H](CCc2ccc(C(F)(F)F)c(Cl)c2)NC(=O)CN(C)C(=O)[C@H](CC2CCCCC2)N(C)C(=O)CN(C)C(=O)CN(C)C1=O` [Compound 1651] ([NMeL][hLeu][Sar][Sar][NMeCha][Sar][hPhe(3-Cl-4-CF3)]P[Ac5c][NMeChg][NMeD]-Piperidide; lactam N-11) stands less than 6.30.
In the case of `CC[C@H](C)[C@@H]1NC(=O)[C@H](CC(C)C)N(C)C(=O)C[C@@H](C(=O)N2CCCCC2)N(C)C(=O)[C@H](CC(C)C)NC(=O)C(C)(C)N(C)C(=O)[C@H](Cc2ccccc2Cl)NC(=O)[C@H](Cc2cccc(I)c2)NC(=O)CN(C)C(=O)[C@H](Cc2ccc(C)cc2)N(C)C(=O)[C@@H]2CCN2C(=O)CN(C)C1=O` [Compound 781] ([NMeL]I[Sar][Aze][NMePhe(4-Me)][Sar][Phe(3-I)][Phe(2-Cl)][NMeAib]L[NMeD]-Piperidide; lactam N-11) it was less than 6.30; in that of `C#CC[C@@H]1NC(=O)[C@H](CC(C)C)N(C)C(=O)C[C@@H](C(=O)N2CCCCC2)N(C)C(=O)[C@H](C2CCCCC2)N(C)C(=O)C2(CCCC2)NC(=O)[C@@H]2CCCN2C(=O)[C@H](CCc2ccc(C(F)(F)F)c(Cl)c2)NC(=O)CN(C)C(=O)[C@H](CC2CCCCC2)N(C)C(=O)CN(C)C(=O)CN(C)C1=O` [Compound 716] ([NMeL][Pra][Sar][Sar][NMeCha][Sar][hPhe(3-Cl-4-CF3)]P[Ac5c][NMeChg][NMeD]-Piperidide; lactam N-11), less than 6.30; in that of `CC[C@H](C)[C@@H]1NC(=O)[C@H](CC(C)C)N(C)C(=O)C[C@@H](C)NC(=O)[C@H](C(C)C)N(C)C(=O)C2(CCCC2)NC(=O)[C@@H]2CCCN2C(=O)[C@H](CCc2ccc(C(F)(F)F)c(Cl)c2)NC(=O)CN(C)C(=O)[C@H](Cc2ccc(C#N)cc2)N(C)C(=O)CN(C)C(=O)CN(C)C1=O` [Compound 564] (cyclo([Ac5c][NMeV][d(β3hA)][NMeL]I[Sar][Sar][NMePhe(4-CN)][Sar][hPhe(3-Cl-4-CF3)]P)), less than 6.30.
Turning to `CC[C@H](C)[C@@H]1NC(=O)[C@H](CC(C)C)N(C)C(=O)C[C@@H](C)NC(=O)[C@H](C(C)C)N(C)C(=O)C(C)(C)NC(=O)[C@@H]2CCCN2C(=O)[C@H](CCc2ccc(C(F)(F)F)c(Cl)c2)NC(=O)CN(C)C(=O)[C@H](CC2CCCCC2)N(C)C(=O)CN(C)C(=O)CN(C)C1=O` [Compound 641] (cyclo([Aib][NMeV][d(β3hA)][NMeL]I[Sar][Sar][NMeCha][Sar][hPhe(3-Cl-4-CF3)]P)), the pIC50 is less than 6.30.
As for `CC[C@H](C)[C@@H]1NC(=O)[C@H](CC(C)C)N(C)C(=O)C[C@@H](C(=O)N(C)C)N(C)C(=O)[C@H]([C@@H](C)CC)N(C)C(=O)C2(CCCC2)NC(=O)[C@@H](C)NC(=O)[C@H](CCc2ccc(C(F)(F)F)c(Cl)c2)NC(=O)CN(C)C(=O)[C@H](Cc2ccc(C)cc2)N(C)C(=O)[C@@H]2CCN2C(=O)[C@H](C)N(C)C1=O` [Compound 67] ([NMeL]I[NMeA][Aze][NMePhe(4-Me)][Sar][hPhe(3-Cl-4-CF3)][dA][Ac5c][NMeI][NMeD]-NMe2; lactam N-11), the pIC50 was less than 6.30.
In the case of `CC[C@H](C)[C@@H]1NC(=O)[C@H](CC(C)C)N(C)C(=O)C[C@@H](C(=O)N2CCCCC2)N(C)C(=O)[C@H](CC(C)C)NC(=O)C(C)(C)N(C)C(=O)[C@H](Cc2ccccc2)NC(=O)[C@H](Cc2cccc(I)c2)NC(=O)CN(C)C(=O)[C@H](Cc2ccc(C)cc2)N(C)C(=O)[C@@H]2CCN2C(=O)[C@H](C)N(C)C1=O` [Compound 1015] ([NMeL]I[NMeA][Aze][NMePhe(4-Me)][Sar][Phe(3-I)]F[NMeAib]L[NMeD]-Piperidide; lactam N-11) it was less than 6.30.
In the case of `CC[C@H](C)[C@@H]1NC(=O)[C@H](CC(C)C)N(C)C(=O)C[C@@H](C)NC(=O)[C@H](C(C)C)N(C)C(=O)C2(CCCC2)NC(=O)[C@@H]2CCCN2C(=O)[C@H](CCc2ccc(C(F)(F)F)c(Cl)c2)NC(=O)CN(C)C(=O)[C@H](Cc2ccccc2F)N(C)C(=O)CN(C)C(=O)CN(C)C1=O` [Compound 1585] (cyclo([Ac5c][NMeV][d(β3hA)][NMeL]I[Sar][Sar][NMePhe(2-F)][Sar][hPhe(3-Cl-4-CF3)]P)) it was less than 6.30; in that of `CC[C@H](C)[C@@H]1NC(=O)[C@H](C(C)C)N(C)C(=O)C[C@@H](C)NC(=O)[C@H](CC(C)C)N(C)C(=O)C2(CCCC2)NC(=O)[C@H](CC(C)C)N(C)C(=O)[C@H](CCc2ccc(C(F)(F)F)c(F)c2)NC(=O)CN(C)C(=O)[C@H](Cc2ccc(Cl)cc2)N(C)C(=O)CN(C)C(=O)CN(C)C1=O` [Compound 851] (cyclo([Ac5c][NMeL][d(β3hA)][NMeV]I[Sar][Sar][NMePhe(4-Cl)][Sar][hPhe(3-F,4-CF3)][NMeL])), less than 6.30; in that of `Cc1ccc(C[C@H]2C(=O)N(C)CC(=O)N[C@@H](CCc3ccc(C(F)(F)F)c(Cl)c3)C(=O)N3CCC[C@H]3C(=O)NC3(CCCC3)C(=O)N(C)[C@@H](C3CCCC3)C(=O)N[C@H](C)CC(=O)N(C)[C@@H](CC(C)C)C(=O)N[C@@H](C)C(=O)N(C)[C@@H](C)C(=O)N3CC[C@H]3C(=O)N2C)cc1` [Compound 1225] (cyclo(A[NMeA][Aze][NMePhe(4-Me)][Sar][hPhe(3-Cl-4-CF3)]P[Ac5c][NMeGly(cPent)][d(β3hA)][NMeL])), less than 6.30.
In the case of `CC[C@H](C)[C@@H]1NC(=O)[C@H](CC(C)C)N(C)C(=O)C[C@@H](C(=O)N(C)C)N(C)C(=O)[C@H]([C@@H](C)CC)N(C)C(=O)C2(CCCC2)NC(=O)[C@H](CCc2cccnc2)N(C)C(=O)[C@H](CCc2ccc(C(F)(F)F)c(Cl)c2)NC(=O)CN(C)C(=O)[C@H](Cc2ccc(C)cc2)N(C)C(=O)[C@@H]2CCN2C(=O)[C@H](C)N(C)C1=O` [Compound 1886] ([NMeL]I[NMeA][Aze][NMePhe(4-Me)][Sar][hPhe(3-Cl-4-CF3)][X48][Ac5c][NMeI][NMeD]-NMe2; lactam N-11) it was no less than 7.70.
With `CC[C@H](C)[C@@H]1NC(=O)[C@H](CC(C)C)N(C)C(=O)C[C@@H](C(=O)N2CCCCC2)N(C)C(=O)[C@H](C2CCCCC2)N(C)C(=O)C2(CCCCC2)NC(=O)[C@@H]2CCCN2C(=O)[C@H](CCc2ccc(C(F)(F)F)c(Cl)c2)NC(=O)CN(C)C(=O)[C@H](CC2CCCCC2)N(C)C(=O)CN(C)C(=O)CN(C)C1=O` [Compound 1644] ([NMeL]I[Sar][Sar][NMeCha][Sar][hPhe(3-Cl-4-CF3)]P[Ac6c][NMeChg][NMeD]-Piperidide; lactam N-11), the pIC50 was less than 6.30.
Under `CC[C@H](C)[C@@H]1NC(=O)[C@H](C)N(C)C(=O)C[C@@H](C)NC(=O)[C@H](C2CCCC2)N(C)C(=O)C2(CCCC2)NC(=O)[C@@H]2CCCN2C(=O)[C@H](CCc2ccc(C(F)(F)F)c(Cl)c2)NC(=O)CN(C)C(=O)[C@H](Cc2ccccc2F)N(C)C(=O)[C@@H]2CCCN2C(=O)CN(C)C1=O` [Compound 1077] (cyclo([Ac5c][NMeGly(cPent)][d(β3hA)][NMeA]I[Sar]P[NMePhe(2-F)][Sar][hPhe(3-Cl-4-CF3)]P)) stands less than 6.30; under `CC[C@H](C)[C@@H]1NC(=O)[C@H](CC(C)C)N(C)C(=O)C[C@@H](C(=O)N2CCCCC2)N(C)C(=O)[C@H](CC(C)C)NC(=O)C(C)(C)N(C)C(=O)[C@H](Cc2ccccc2OC)NC(=O)[C@H](Cc2cccc(I)c2)NC(=O)CN(C)C(=O)[C@H](Cc2ccc(C)cc2)N(C)C(=O)[C@@H]2CCN2C(=O)CN(C)C1=O` [Compound 459] ([NMeL]I[Sar][Aze][NMePhe(4-Me)][Sar][Phe(3-I)][Phe(2-OMe)][NMeAib]L[NMeD]-Piperidide; lactam N-11), less than 6.30.
As to `CC[C@H](C)[C@@H]1NC(=O)[C@H](CC(C)C)N(C)C(=O)C[C@@H](C(=O)N(C)C)N(C)C(=O)[C@H]([C@@H](C)CC)N(C)C(=O)[C@H](C)NC(=O)[C@H](Cc2cscn2)N(C)C(=O)[C@H](CCc2ccc(C(F)(F)F)c(Cl)c2)NC(=O)CN(C)C(=O)[C@H](Cc2ccc(C)cc2)N(C)C(=O)[C@@H]2CCN2C(=O)[C@H](C)N(C)C1=O` [Compound 856] ([NMeL]I[NMeA][Aze][NMePhe(4-Me)][Sar][hPhe(3-Cl-4-CF3)][NMeAla(4-thiazolyl)]A[NMeI][NMeD]-NMe2; lactam N-11), the pIC50 was less than 6.30.
Regarding `CC[C@H](C)[C@@H]1NC(=O)[C@H](C)N(C)C(=O)C[C@@H](C(=O)N2CCOCC2)N(C)C(=O)[C@H](C2CCCCC2)N(C)C(=O)C2(CCCC2)NC(=O)[C@H](Cc2cccnc2)N(C)C(=O)[C@H](CCc2ccc(C(F)(F)F)c(Cl)c2)NC(=O)CN(C)C(=O)[C@H](CC2CCCCC2)N(C)C(=O)[C@@H]2CCN2C(=O)CN(C)C1=O` [Compound 1703] ([NMeA]I[Sar][Aze][NMeCha][Sar][hPhe(3-Cl-4-CF3)][NMe3Pal][Ac5c][NMeChg][NMeD]-Morpholide; lactam N-11), the pIC50 was less than 6.30.
In the case of `C=C(C)C[C@@H]1NC(=O)[C@H](Cc2cccc(I)c2)NC(=O)CN(C)C(=O)[C@H](Cc2ccc(Cl)cc2)N(C)C(=O)[C@@H]2CCN2C(=O)CN(C)C(=O)[C@H]([C@@H](C)CC)NC(=O)[C@H](CC(C)C)N(C)C(=O)C[C@@H](C(=O)N2CCCCC2)N(C)C(=O)[C@H](CC(C)C)NC(=O)C(C)(C)N(C)C1=O` [Compound 1414] ([NMeL]I[Sar][Aze][NMePhe(4-Cl)][Sar][Phe(3-I)][Leu(4,5-dehydro)][NMeAib]L[NMeD]-Piperidide; lactam N-11), the pIC50 is less than 6.30.
